Molecular target: PAR4 (Homo sapiens (Human), UniProt Q96RI0)
Assay: PAR4 FLIPR assay (antagonism of agonist-peptide-induced calcium mobilization)
Type: cell-based
Details: H-Ala-Phe(4-F)-Pro-Gly-Trp-Leu-Val-Lys-Asn-Gly-NH2-induced intracellular calcium mobilization, PAR4-expressing HEK293 cells; read-out: PAR4 FLTPR assay (IC50)
Method in brief: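 HEK293 cells stably expressing human PAR4 (also endogenous PAR1), loaded with fluorescent calcium indicator in HBSS/20 mM HEPES; compounds added at 0.17% DMSO, read on FDSS for agonism, then 30 min RT before H-Ala-Phe(4-F)-peptide agonist challenge. Potency from 11-point concentration-response curves.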

Sequence of PAR4 (Q96RI0 18-385): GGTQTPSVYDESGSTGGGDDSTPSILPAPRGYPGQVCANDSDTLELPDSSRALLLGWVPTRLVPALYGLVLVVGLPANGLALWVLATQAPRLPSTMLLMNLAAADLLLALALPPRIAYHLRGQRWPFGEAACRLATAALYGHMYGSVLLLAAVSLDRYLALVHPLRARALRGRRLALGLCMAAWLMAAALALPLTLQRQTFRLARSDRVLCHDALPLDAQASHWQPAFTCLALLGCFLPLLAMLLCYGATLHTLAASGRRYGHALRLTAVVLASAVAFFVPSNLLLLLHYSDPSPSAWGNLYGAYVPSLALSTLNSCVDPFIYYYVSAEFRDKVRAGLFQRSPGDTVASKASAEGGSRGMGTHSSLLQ

Row | Compound | IC50
1 | COc1cnc2c(-c3nc4cc(F)c(O[C@H]5CC(F)(F)CC[C@H]5OC(=O)Nc5ccc(CCO)nc5)cc4s3)cc(C)cc2n1 [Example 5] | 6.8 nM
2 | COC(=O)c1ccc(NC(=O)O[C@@H]2CCC[C@@H]2Oc2cc3sc(-c4cc(C)cc5nc(OC)cnc45)nc3cc2F)cn1 [Example 47, methyl 5-(((((1R,2S)-2-((5-fluoro-2-(2-methoxy-7-methylquinoxalin-5-yl)benzo[d]thiazol-6-yl)oxy)cyclopentyl)oxy)carbonyl)amino)picolinate] | 4.2 nM
3 | CCOc1cnc2c(-c3nc4cc(F)c(O[C@H]5CC(F)(F)CC[C@H]5OC(=O)Nc5cnc(C)nc5)cc4s3)cc(C)cc2n1 [Example 18, (1R,2S)-2-((2-(2-ethoxy-7-methylquinoxalin-5-yl)-5-fluorobenzo[d]thiazol-6-yl)oxy)-4,4-difluorocyclohexyl (2-methylpyrimidin-5-yl)carbamate] | 3.9 nM
4 | COc1cnc2c(-c3nc4cc(F)c(O[C@H]5CC[C@H]5OC(=O)Nc5cnc(OC[C@@H](C)O)nc5)cc4s3)cc(C)cc2n1 [Example 63] | 7.4 nM
5 | COc1cnc2c(-c3nc4cc(F)c(O[C@H]5CCC[C@H]5OC(N)=O)cc4s3)cc(C)cc2n1 [Example 39] | 400 nM
6 | COc1cnc2c(-c3nc4cc(F)c(O[C@H]5CCC[C@H]5OC(=O)Nc5ccc(C(N)=O)nc5)cc4s3)cc(C)cc2n1 [Example 49, (1R,2S)-2-((5-fluoro-2-(2-methoxy-7-methylquinoxalin-5-yl)benzo[d]thiazol-6-yl)oxy)cyclopentyl (6-carbamoylpyridin-3-yl)carbamate] | 3.6 nM
7 | COc1cnc2c(-c3nc4cc(F)c(O[C@H]5CC(F)(F)C[C@H]5OC(=O)Nc5cnc(C)nc5)cc4s3)cc(C)cc2n1 [Example 100] | 1.3 nM

Same assay, conditions: H-Ala-Phe(4-F)-[…]NH2-induced intracellular calcium mobilization, PAR4-expressing HEK293 cells; read-out: PAR4 FLTPR assay (IC50)

Row | Compound | IC50
8 | COc1ccc(NC(=O)O[C@H]2CCC(F)(F)CC2Oc2cc3sc(-c4cc(C)cc5nc(OC)cnc45)nc3cc2F)cn1 (mixture of isomers) [Example 14] | 2.4 nM
9 | COc1ccc(NC(=O)O[C@H]2CC[C@H]2Oc2cc3sc(-c4cc(C)cc5nc(OC)cnc45)nc3cc2F)cn1 (racemic) [Example 66] | 0.79 nM
10 | COc1cnc2c(-c3nc4cc(F)c(O[C@@H]5CN(C(C)=O)CC[C@@H]5OC(=O)Nc5cnc(C)nc5)cc4s3)cc(C)cc2n1 (racemic) [Example 94, rac-cis-1-acetyl-3-((5-fluoro-2-(2-methoxy-7-methylquinoxalin-5-yl)benzo[d]thiazol-6-yl)oxy)piperidin-4-yl (2-methylpyrimidin-5-yl)carbamate] | 2300 nM
11 | COc1cnc2c(-c3nc4cc(F)c(O[C@@H]5CCCC[C@@H]5OC(=O)Nc5cccnc5)cc4s3)cc(C)cc2n1 (single isomer, unassigned; enantiomer 2) [Example 59, cis-2-((5-fluoro-2-(2-methoxy-7-methylquinoxalin-5-yl)benzo[d]thiazol-6-yl)oxy)cyclohexyl pyridin-3-ylcarbamate (Enantiomer 2)] | 77 nM
12 | COc1cnc2c(-c3nc4cc(F)c(O[C@@H]5CCCC[C@@H]5OC(=O)Nc5cccnc5)cc4s3)cc(C)cc2n1 (racemic) [Example 55, rac-cis-2-((5-fluoro-2-(2-methoxy-7-methylquinoxalin-5-yl)benzo[d]thiazol-6-yl)oxy) cyclohexyl pyridin-3-ylcarbamate] | 1.4 nM
13 | COc1ccc(NC(=O)O[C@@H]2CCC[C@@H]2Oc2cc3sc(-c4cc(C)cc5nc(OC)cnc45)nc3cc2F)cn1 (racemic) [Example 33] | 3.1 nM
14 | COc1cnc2c(-c3nc4cc(F)c(O[C@@H]5CCC[C@@H]5OC(=O)Nc5cncc(C#N)c5)cc4s3)cc(C#N)cc2n1 (racemic) [Example 45, rac-cis-2-((2-(7-cyano-2-methoxyquinoxalin-5-yl)-5-fluorobenzo[d]thiazol-6-yl)oxy)cyclopentyl (5-cyanopyridin-3-yl)carbamate] | 2.2 nM
15 | COc1cnc2c(-c3nc4cc(F)c(O[C@@H]5CCC[C@H]5O)cc4s3)cc(C)cc2n1 (racemic) [Example 41, rac-trans-2-((5-fluoro-2-(2-methoxy-7-methylquinoxalin-5-yl)benzo[d]thiazol-6-yl)oxy)cyclopentanol] | 180 nM
16 | COc1ccc(NC(=O)O[C@@H]2CCCC[C@H]2Oc2cc3sc(-c4cc(C)cc5nc(OC)cnc45)nc3cc2F)cn1 (racemic) [Example 53, rac-trans-2-((5-fluoro-2-(2-methoxy-7-methylquinoxalin-5-yl)benzo[d]thiazol-6-yl)oxy)cyclohexyl (6-methoxypyridin-3-yl)carbamate] | 94 nM
17 | COc1ccc(NC(=O)O[C@H]2COC[C@H]2Oc2cc3sc(-c4cc(C)cc5nc(OC)cnc45)nc3cc2F)cn1 (racemic) [Example 87, rac-cis-4-((5-fluoro-2-(2-methoxy-7-methylquinoxalin-5-yl)benzo[d]thiazol-6-yl)oxy) tetrahydrofuran-3-yl (6-methoxypyridin-3-yl)carbamate] | 6.2 nM
18 | COc1cnc2c(-c3nc4cc(F)c(O[C@@H]5CC(F)(F)C[C@@H]5OC(=O)Nc5cnc(C)nc5)cc4s3)cc(Cl)cc2c1 (racemic) [Example 98, rac-cis-2-((2-(6-chloro-3-methoxyquinolin-8-yl)-5-fluorobenzo[d]thiazol-6-yl)oxy)-4,4-difluorocyclopentyl (2-methylpyrimidin-5-yl)carbamate] | 14 nM
19 | COc1cnc2c(-c3nc4cc(F)c(O[C@@H]5CCC[C@H]5O)cc4s3)cc(CO)cc2n1 (racemic) [Example 43, rac-trans-2-((5-fluoro-2-(7-(hydroxymethyl)-2-methoxyquinoxalin-5-yl)benzo[d]thiazol-6-yl)oxy)cyclopentanol] | 22 nM
20 | COc1ccc(NC(=O)O[C@H]2CCN(C(=O)OC(C)(C)C)C[C@H]2Oc2cc3sc(-c4cc(C)cc5nc(OC)cnc45)nc3cc2F)cn1 (racemic) [Example 92, rac-cis-tert-butyl 3-((5-fluoro-2-(2-methoxy-7-methylquinoxalin-5-yl)benzo[d]thiazol-6-yl)oxy)-4-(((6-methoxypyridin-3-yl)carbamoyl)oxy)piperidine-1-carboxylate] | 12 nM
21 | COc1cnc2c(-c3nc4cc(F)c(O[C@@H]5CN(S(C)(=O)=O)CC[C@@H]5OC(=O)Nc5cnc(C)nc5)cc4s3)cc(C)cc2n1 (racemic) [Example 95, rac-cis-3-((5-fluoro-2-(2-methoxy-7-methylquinoxalin-5-yl)benzo[d]thiazol-6-yl)oxy)-1-(methylsulfonyl)piperidin-4-yl (2-methylpyrimidin-5-yl)carbamate] | 72 nM

Reference: patent publication US10730868B2, “Bicyclic heteroaryl substituted compounds” (BRISTOL-MYERS SQUIBB COMPANY, priority 2016, dated 2020)
